Test results published in patent US20050130232A1, “Methods of screening for compounds that modulate hormone receptor activity” (Allergan, Inc., priority 2001, published 2005).

Assays:
[1] = target: T1, RXRα associated protein kinase (Homo sapiens, UniProt P19793); test: In vitro phosphorylation of exogenous protein substrates by RXR-associated kinase; assay type: cell-based; details: Flag-RXR transfected cells, 10^-7 M
T1 sequence (P19793 1-462): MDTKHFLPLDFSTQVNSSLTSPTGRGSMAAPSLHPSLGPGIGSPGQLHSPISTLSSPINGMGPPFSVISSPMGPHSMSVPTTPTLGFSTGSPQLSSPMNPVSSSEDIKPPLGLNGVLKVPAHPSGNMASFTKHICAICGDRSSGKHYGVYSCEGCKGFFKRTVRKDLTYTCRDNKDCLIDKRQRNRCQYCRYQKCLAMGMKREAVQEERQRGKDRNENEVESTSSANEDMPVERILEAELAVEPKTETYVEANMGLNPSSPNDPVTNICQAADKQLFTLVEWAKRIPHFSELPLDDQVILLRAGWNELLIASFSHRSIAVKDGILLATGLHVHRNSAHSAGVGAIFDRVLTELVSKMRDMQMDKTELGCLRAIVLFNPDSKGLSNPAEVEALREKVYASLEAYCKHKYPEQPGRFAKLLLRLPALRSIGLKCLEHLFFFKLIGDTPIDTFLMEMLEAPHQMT
Experimental: Total cell lysates were immunoprecipitated with anti-FLAG antibody (M2). Immunoprecipitated material was used for in vitro kinas reaction with γ-^32P-ATP alone or with addition of exogenous mixed histones or myelin basic protein (MBP). The phosphorylated proteins were separated on SDS-PAGE and detected by autoradiography.
After terminating the kinase reaction, the products were analyzed by SDS-PAGE.
Kinase reactions with purified proteins were performed essentially as described above for synthetic peptide substrates. Briefly, immunoprecipitated complexes were resuspended in kinase assay buffer with 2 μg myelin basic protein (Sigma) or histone-M (Roche), and kinase reactions initiated by addition of 50 μM [γ-^32P]ATP (10 μCi). The reaction mixtures were then incubated at 25° C. with occasional shaking for 20 minutes, and terminated by addition of sample buffer. SDS-PAGE analysis and autoradiography were used to visualize the results.

RXRα = target: T2, RXRα (Homo sapiens, UniProt P19793); test: In vivo metabolic labeling with [32P]orthophosphate of Flag-RXR transfected HEK 293 cells; assay type: cell-based; design: expressed in transfected cells; host or cells: HEK 293; details: [32P]orthophosphate labeling, ligand 10 minutes
T2 sequence (P19793 1-462): T1 sequence (P19793 1-462)
Excerpt: (A) AGN194204-dependent protein kinase activity in Flag-RXR immunocomplexes, which were immunoprecipitated from transfected cells using antibody against the “Flag” epitope tag fused to the RXR receptor. […] Total cell lysates were immunoprecipitated with anti-Flag antibody (M2). Aliquots of the immunocomplexes were used for the in vitro kinase reaction with [γ-^32P]ATP and separated on SDS-PAGE. Phosphorylated proteins were detected by autoradiography (top panel). Additional aliquots of the immunocomplexes were subjected to immunoblotting with polyclonal anti-RXR antisera (D20; bottom panel). (B) Phosphoamino acid analysis. Flag-RXR and the 160-kDa protein were phosphorylated in vitro and separated on SDS-PAGE as described above, then transferred onto PVDF membrane, detected by autoradiography, and cut out for hydrolysis with acid (6 N HCl). The phosphorylated amino acids and standards (P-Ser, P-Thr, and P-Tyr) were separated by thin-layer chromatography. Positions of the standards P-Ser, P-Thr, and P-Tyr were visualized by ninhydrin staining and are indicated by arrows. (C) In vivo metabolic labeling of transfected HEK 293 cells. […] Cells were washed with phosphate-free medium and starved for 90 minutes before incubation with [^32P]orthophosphate for another 4 hours. […] Phosphorylated proteins were detected by autoradiography. […]

Structure (SMILES): CC(/C=C/[C@@H]1C[C@]1(C)c1ccc2c(c1)C(C)(C)CCC2(C)C)=C\C(=O)O [AGN194204]
- in vitro phosphorylation of histone-M [1]: increased
- in vitro phosphorylation of myelin basic protein (MBP) [1]: dramatically increased
- in vivo phosphorylation of RXRα (RXRα): stimulated
